What was measured:
[1] = tested on: barnyardgrass; experiment: Test B pre-/postemergence herbicide test; format: in vivo, Echinochloa crus-galli
Procedure, shortened: (§1)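 Plants compared with untreated controls 13–15 days post-treatment and given a visual 0–100 injury score. Applications: preemergence to seeds; postemergence at 1- to 4-leaf (2–18 cm); paddy species flooded, 2-leaf stage. Vehicle non-phytotoxic, surfactant included.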

[2] = tested on: Surinam grass; experiment: Test B pre-/postemergence herbicide test; format: in vivo, Urochloa decumbens
Procedure, shortened: (§2)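 Seeds were planted and treated preemergence with compounds formulated in a non-phytotoxic solvent mixture containing surfactant, while plants at the 1- to 4-leaf stage (2 to 18 cm) received postemergence sprays. Flooded paddy plants were grown to the 2-leaf stage. After 13 to 15 days in a greenhouse, injury was visually rated 0–100 against untreated controls.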

[3] = tested on: cocklebur; experiment: Test B pre-/postemergence herbicide test; format: in vivo, Xanthium strumarium
Procedure, shortened: as §1

[4] = tested on: corn; experiment: Test B pre-/postemergence herbicide test; format: in vivo, Zea mays
Procedure, shortened: as §2

[5] = tested on: large crabgrass; experiment: Test B pre-/postemergence herbicide test; format: in vivo, Digitaria sanguinalis
Procedure, shortened: as §2

[6] = tested on: giant foxtail; experiment: Test B pre-/postemergence herbicide test; format: in vivo, Setaria faberi
Procedure, shortened: as §2

[7] = tested on: lambsquarters; experiment: Test B pre-/postemergence herbicide test; format: in vivo, Chenopodium album
Procedure, shortened: as §2

[8] = tested on: morningglory; experiment: Test B pre-/postemergence herbicide test; format: in vivo, Ipomoea coccinea
Procedure, shortened: as §1

[9] = tested on: pigweed; experiment: Test B pre-/postemergence herbicide test; format: in vivo, Amaranthus retroflexus
Procedure, shortened: as §2

[10] = tested on: rice; experiment: Test B pre-/postemergence herbicide test; format: in vivo, Oryza sativa; details: 0 = no effect, 100 = complete control, preemergence; for Rice plant response rating (0 to 100 scale): 125 g ai/ha; for Plant response rating, Rice: 500 g ai/ha, visual rating
Procedure, shortened: as §2

[11] = tested on: velvetleaf; experiment: Test B pre-/postemergence herbicide test; format: in vivo, Abutilon theophrasti
Procedure, shortened: as §2

[12] = tested on: blackgrass; experiment: Test B postemergence herbicide test; format: in vivo, Alopecurus myosuroides
Procedure, shortened: (§3)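 Formulated test chemicals went onto postemergence plants measuring 2 to 18 cm, at one to four leaves. For the paddy assay, species had reached two leaves. Scoring took place 13–15 days later by eye, relative to untreated plants, using 0 for no effect up to 100 for full control.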

[13] = tested on: wheat; experiment: Test B postemergence herbicide test; format: in vivo, Triticum aestivum; parameters: key to Wheat plant response rating: 0 = no effect, 100 = complete control
Procedure, shortened: (§4)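 After treating 2-leaf paddy plants or 2–18 cm postemergence plants (1 to 4 leaves) with formulated chemical, researchers kept them in a greenhouse for 13–15 days. Effects were judged visually versus controls: 0 indicates none, 100 total control.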

[14] = tested on: wild oat; experiment: Test B postemergence herbicide test; format: in vivo, Avena fatua
Procedure, shortened: as §4

[15] = tested on: rice; experiment: Test B flooded paddy test; format: in vivo, Oryza sativa; details: 1000 g ai/ha, scale 0 to 100 (0 no effect, 100 complete control)
Procedure, shortened: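 Visual ratings, 0 (no effect) to 100 (complete control), made versus controls after 13–15 d greenhouse. Paddy plants treated at 2-leaf stage; postemergence plants at 1- to 4-leaf stage, 2–18 cm tall.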

[16] = tested on: small flower umbrella sedge; experiment: Test B flooded paddy test; format: in vivo, Cyperus difformis; details: 1000 g ai/ha, scale 0 to 100 (0 no effect, 100 complete control)
Procedure, shortened: as §3

[17] = tested on: ducksalad; experiment: Test B flooded paddy test; format: in vivo, Heteranthera limosa; details: 1000 g ai/ha, scale 0 to 100 (0 no effect, 100 complete control)
Procedure, shortened: as §3

[18] = tested on: barnyardgrass; experiment: Test B flooded paddy test; format: in vivo, Echinochloa crus-galli; details: 1000 g ai/ha, scale 0 to 100 (0 no effect, 100 complete control)
Procedure, shortened: as §3

[19] = tested on: rice; experiment: Test C flooded paddy test; format: in vivo, Oryza sativa; details: for Plant response rating, Rice: 500 g ai/ha, visual rating after 12 to 14 days
Procedure, shortened: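 Injury scored visually against controls on a 0 (no effect) to 100 (complete control) scale, 12 to 14 days after treatment in greenhouse. Flooded paddy plants treated at 2-leaf stage; postemergence plants at 1- to 4-leaf stage, 2 to 18 cm tall.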

[20] = tested on: smallflower umbrella sedge; experiment: Test C flooded paddy test; format: in vivo, Cyperus difformis; details: for Plant response rating, Sedge, Umbrella: 500 g ai/ha, visual rating after 12 to 14 days
[21] = tested on: ducksalad; experiment: Test C flooded paddy test; format: in vivo, Heteranthera limosa; details: for Plant response rating, Ducksalad: 500 g ai/ha, visual rating after 12 to 14 days
[22] = tested on: barnyardgrass; experiment: Test C flooded paddy test; format: in vivo, Echinochloa crus-galli; details: for Plant response rating, Barnyardgrass: 500 g ai/ha, visual rating after 12 to 14 days
Procedure, shortened: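 Weeds and wheat were sprayed after emergence, at a height of 2 to 18 cm (1–4 leaves), and paddy barnyardgrass was flooded and treated at two leaves. Assessment took place 12–14 days later in the greenhouse on a 0-to-100 visual control scale. A dash means no result was obtained.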

[23] = 125 g ai/ha; 0 = no effect, 100 = complete control; preemergence
[24] = 125 g ai/ha; visual rating, scale 0 (no effect) to 100 (complete control); postemergence
[25] = 500 g ai/ha; visual rating, 0 = no effect, 100 = complete control; preemergence
[26] = postemergence, 500 g ai/ha; scale 0 to 100, 0 is no effect, 100 is complete control
[27] = 125 g ai/ha, scale 0 to 100 (0 no effect, 100 complete control)
[28] = 250 g ai/ha, scale of 0 to 100, 0 is no effect, 100 is complete control
[29] = scale 0 to 100 (0 no effect, 100 complete control)
[30] = 62 g ai/ha, scale 0 to 100 (0 no effect, 100 complete control)
[31] = postemergence, 125 g ai/ha; visual rating, scale 0 (no effect) to 100 (complete control)

CCn1nc(C2(C)CC2)cc1C(=O)Nc1cccc(C(=O)N(C)C)c1 [Compound 303]
Barnyardgrass plant response rating (0 to 100 scale) [1, 23]: 70 | Barnyardgrass plant response rating [1, 24]: 40 | Plant response rating, Barnyardgrass [1, 25]: 90 | Barnyardgrass plant response rating [1, 26]: 40 | Surinam Grass plant response rating (0 to 100 scale) [2, 23]: 50 | Surinam Grass plant response rating [2, 24]: 10 | Plant response rating, Surinam Grass [2, 25]: 100 | Surinam Grass plant response rating [2, 26]: 20 | Cocklebur plant response rating (0 to 100 scale) [3, 23]: 0 | Cocklebur plant response rating [3, 24]: 10 | Plant response rating, Cocklebur [3, 25]: 20 | Cocklebur plant response rating [3, 26]: 30 | Corn plant response rating [4, 24]: 70 | Plant response rating, Corn [4, 25]: 70 | Corn plant response rating [4, 26]: 70 | Crabgrass, Large plant response rating (0 to 100 scale) [5, 23]: 100 | Crabgrass, Large plant response rating [5, 24]: 10 | Plant response rating, Crabgrass, Large [5, 25]: 100 | Crabgrass, Large plant response rating [5, 26]: 60 | Foxtail, Giant plant response rating (0 to 100 scale) [6, 23]: 50 | Foxtail, Giant plant response rating [6, 24]: 50 | Plant response rating, Foxtail, Giant [6, 25]: 100 | Foxtail, Giant plant response rating [6, 26]: 50 | Lambsquarters plant response rating (0 to 100 scale) [7, 23]: 100 | Lambsquarters plant response rating [7, 24]: 80 | Plant response rating, Lambsquarters [7, 25]: 100 | Lambsquarters plant response rating [7, 26]: 90 | Morningglory plant response rating (0 to 100 scale) [8, 23]: 10 | Morningglory plant response rating [8, 24]: 80 | Plant response rating, Morningglory [8, 25]: 50 | Morningglory plant response rating [8, 26]: 90 | Pigweed plant response rating (0 to 100 scale) [9, 23]: 100 | Pigweed plant response rating [9, 24]: 70 | Plant response rating, Pigweed [9, 25]: 100 | Pigweed plant response rating [9, 26]: 90 | Rice plant response rating (0 to 100 scale) [10]: 70 | Plant response rating, Rice [10]: 80 | Velvetleaf plant response rating [11, 24]: 30 | Plant response rating, Velvetleaf [11, 25]: 100 | Velvetleaf plant response rating [11, 26]: 70 | Blackgrass plant response rating [12, 24]: 20 | Blackgrass plant response rating [12, 26]: 40 | Wheat plant response rating [13, 24]: 10 | Wheat plant response rating [13, 26]: 20 | Oat, Wild plant response rating [14, 24]: 30 | Oat, Wild plant response rating [14, 26]: 40 | Rice plant response rating [15]: 90 | Sedge, Umbrella plant response rating [16]: 90 | Ducksalad plant response rating [17]: 90 | Barnyardgrass plant response rating [18]: 90 | Rice plant response rating ([19]; 62 g ai/ha, scale 0 to 100): 30 | Rice plant response rating [19, 27]: 65 | Rice plant response rating [19, 28]: 80 | Plant response rating, Rice [19, 29]: 85 | Sedge, Umbrella plant response rating ([20]; 62 g ai/ha, scale 0 to 100): 75 | Sedge, Umbrella plant response rating [20, 27]: 85 | Sedge, Umbrella plant response rating [20, 28]: 85 | Plant response rating, Sedge, Umbrella [20, 29]: 90 | Ducksalad plant response rating ([21]; 62 g ai/ha, scale 0 to 100): 55 | Ducksalad plant response rating [21, 27]: 75 | Ducksalad plant response rating [21, 28]: 80 | Plant response rating, Ducksalad [21, 29]: 85 | Barnyardgrass plant response rating [22, 30]: 30 | Barnyardgrass plant response rating [22, 27]: 45 | Barnyardgrass plant response rating [22, 28]: 80 | Plant response rating, Barnyardgrass [22, 29]: 95

CCn1nc(C(C)(C)C)c(F)c1C(=O)Nc1cccc(C(=O)N(C)C)n1 [Compound 274]
Barnyardgrass plant response rating (0 to 100 scale) [1, 23]: 60 | Plant response rating, Barnyardgrass [1, 25]: 100 | Barnyardgrass plant response rating [1, 31]: 0 | Barnyardgrass plant response rating [1, 26]: 10 | Surinam Grass plant response rating (0 to 100 scale) [2, 23]: 50 | Plant response rating, Surinam Grass [2, 25]: 80 | Surinam Grass plant response rating [2, 31]: 20 | Surinam Grass plant response rating [2, 26]: 30 | Cocklebur plant response rating (0 to 100 scale) [3, 23]: 0 | Plant response rating, Cocklebur [3, 25]: 0 | Cocklebur plant response rating [3, 31]: 0 | Cocklebur plant response rating [3, 26]: 10 | Corn plant response rating (0 to 100 scale) [4, 23]: 0 | Plant response rating, Corn [4, 25]: 80 | Corn plant response rating [4, 31]: 0 | Corn plant response rating [4, 26]: 20 | Crabgrass, Large plant response rating (0 to 100 scale) [5, 23]: 10 | Plant response rating, Crabgrass, Large [5, 25]: 100 | Crabgrass, Large plant response rating [5, 31]: 0 | Crabgrass, Large plant response rating [5, 26]: 0 | Foxtail, Giant plant response rating (0 to 100 scale) [6, 23]: 10 | Plant response rating, Foxtail, Giant [6, 25]: 90 | Foxtail, Giant plant response rating [6, 31]: 20 | Foxtail, Giant plant response rating [6, 26]: 50 | Lambsquarters plant response rating (0 to 100 scale) [7, 23]: 70 | Plant response rating, Lambsquarters [7, 25]: 100 | Lambsquarters plant response rating [7, 31]: 40 | Lambsquarters plant response rating [7, 26]: 70 | Morningglory plant response rating (0 to 100 scale) [8, 23]: 0 | Plant response rating, Morningglory [8, 25]: 10 | Morningglory plant response rating [8, 31]: 0 | Morningglory plant response rating [8, 26]: 60 | Pigweed plant response rating (0 to 100 scale) [9, 23]: 30 | Plant response rating, Pigweed [9, 25]: 100 | Pigweed plant response rating [9, 31]: 40 | Pigweed plant response rating [9, 26]: 60 | Rice plant response rating (0 to 100 scale) [10]: 30 | Plant response rating, Rice [10]: 80 | Velvetleaf plant response rating (0 to 100 scale) [11, 23]: 20 | Plant response rating, Velvetleaf [11, 25]: 70 | Velvetleaf plant response rating [11, 31]: 10 | Velvetleaf plant response rating [11, 26]: 10 | Blackgrass plant response rating [12, 31]: 30 | Blackgrass plant response rating [12, 26]: 30 | Wheat plant response rating [13, 31]: 20 | Wheat plant response rating [13, 26]: 20 | Oat, Wild plant response rating [14, 31]: 20 | Oat, Wild plant response rating [14, 26]: 40 | Rice plant response rating [15]: 60 | Sedge, Umbrella plant response rating [16]: 80 | Ducksalad plant response rating [17]: 70 | Barnyardgrass plant response rating [18]: 70 | Rice plant response rating ([19]; 62 g ai/ha, scale 0 to 100): 0 | Rice plant response rating [19, 27]: 0 | Rice plant response rating [19, 28]: 15 | Plant response rating, Rice [19, 29]: 45 | Sedge, Umbrella plant response rating ([20]; 62 g ai/ha, scale 0 to 100): 0 | Sedge, Umbrella plant response rating [20, 27]: 50 | Sedge, Umbrella plant response rating [20, 28]: 70 | Plant response rating, Sedge, Umbrella [20, 29]: 75 | Ducksalad plant response rating ([21]; 62 g ai/ha, scale 0 to 100): 0 | Ducksalad plant response rating [21, 27]: 0 | Ducksalad plant response rating [21, 28]: 0 | Plant response rating, Ducksalad [21, 29]: 20 | Barnyardgrass plant response rating [22, 30]: 0 | Barnyardgrass plant response rating [22, 27]: 10 | Barnyardgrass plant response rating [22, 28]: 30 | Plant response rating, Barnyardgrass [22, 29]: 60

— patent US20060069132A1, “Azolecarboxamide herbicides” (priority 2004, published 2006)
